Experimental data taken from the NIST ThermoML archive (doi:10.1016/j.jct.2012.11.020).
Numbers after ± are expanded uncertainties.

Test: xn = mol fraction of the nth substance listed
Details: 100 kPa, Liquid; for electrical conductivity: Alternating current cell with electrodes; for viscosity: Cone and plate viscometry; for mass density: Vibrating tube method

C1CC[NH2+]C1.O=[N+]([O-])[O-] [pyrrolidinium nitrate] + CC1COC(=O)O1
Details	electrical conductivity [S/m]	mass density [kg/m3]	viscosity [mPa·s]
258.15 K, x1 = 0.3	0.387 ± 0.031	–	–
260.15 K, x1 = 0.1	0.142 ± 0.011	–	–
260.15 K, x1 = 0.22	0.315 ± 0.025	–	–
262.15 K, x1 = 0.5	0.673 ± 0.054	–	–
263.15 K, x1 = 0.3	0.481 ± 0.038	–	–
266.45 K, x1 = 0.22	0.376 ± 0.03	–	–
268.15 K, x1 = 0.1	0.207 ± 0.017	–	–
268.15 K, x1 = 0.3	0.585 ± 0.047	–	–
268.15 K, x1 = 0.5	0.91 ± 0.073	–	–
270.15 K, x1 = 0.8	0.0803 ± 0.0064	–	–
273.15 K, x1 = 0.1	0.243 ± 0.019	–	–
273.15 K, x1 = 0.22	0.446 ± 0.036	–	–
273.15 K, x1 = 0.3	0.694 ± 0.056	–	–
273.15 K, x1 = 0.5	1.1 ± 0.088	–	–
273.15 K, x1 = 0.8	0.118 ± 0.009	–	–
278.15 K, x1 = 0.1	0.281 ± 0.022	–	–
278.15 K, x1 = 0.22	0.505 ± 0.04	–	–
278.15 K, x1 = 0.3	0.807 ± 0.065	–	–
278.15 K, x1 = 0.5	1.19 ± 0.095	–	–
278.15 K, x1 = 0.8	0.206 ± 0.017	–	–
283.15 K, x1 = 0.1	0.322 ± 0.026	1221 ± 2.4	5.97
283.15 K, x1 = 0.22	0.562 ± 0.045	1225.2 ± 2.5	7.55
283.15 K, x1 = 0.3	0.92 ± 0.074	1227.5 ± 2.5	9.98
283.15 K, x1 = 0.4	–	1229.8 ± 2.5	14.1
283.15 K, x1 = 0.5	1.49 ± 0.12	1231.5 ± 2.5	18.85
283.15 K, x1 = 0.62	–	1233 ± 2.5	23.36
283.15 K, x1 = 0.7	–	1233.3 ± 2.6	28.76
283.15 K, x1 = 0.8	0.352 ± 0.028	1234 ± 2.6	35.56
283.15 K, x1 = 1	–	1235 ± 2.8	58.87
284.15 K, x1 = 1	2.93 ± 0.23	–	–
288.15 K, x1 = 0.1	0.362 ± 0.029	–	–
288.15 K, x1 = 0.22	0.606 ± 0.048	–	–
288.15 K, x1 = 0.3	1.04 ± 0.083	–	–
288.15 K, x1 = 0.5	1.7 ± 0.14	–	–
288.15 K, x1 = 0.8	0.644 ± 0.052	–	–
293.15 K, x1 = 0.1	0.405 ± 0.032	1211 ± 2.4	4.71
293.15 K, x1 = 0.22	0.702 ± 0.056	1215.8 ± 2.4	5.73
293.15 K, x1 = 0.3	1.17 ± 0.093	1218.5 ± 2.4	7.37
293.15 K, x1 = 0.4	–	1221.2 ± 2.5	10.17
293.15 K, x1 = 0.5	1.91 ± 0.15	1223.1 ± 2.5	13.06
293.15 K, x1 = 0.62	–	1225 ± 2.5	17.16
293.15 K, x1 = 0.7	–	1225.6 ± 2.5	20.39
293.15 K, x1 = 0.8	1.44 ± 0.12	1226.5 ± 2.6	24.65
293.15 K, x1 = 1	3.71 ± 0.3	1228 ± 2.7	40.29
298.15 K, x1 = 0.1	0.449 ± 0.036	–	–
298.15 K, x1 = 0.22	0.745 ± 0.06	–	–
298.15 K, x1 = 0.3	1.3 ± 0.1	–	–
298.15 K, x1 = 0.5	2.13 ± 0.17	–	–
298.15 K, x1 = 0.8	2.49 ± 0.2	–	–
298.15 K, x1 = 1	4.22 ± 0.34	–	–
303.15 K, x1 = 0.1	0.497 ± 0.04	1200.9 ± 2.4	3.6
303.15 K, x1 = 0.22	0.832 ± 0.067	1206.4 ± 2.4	4.5
303.15 K, x1 = 0.3	1.44 ± 0.12	1209.5 ± 2.4	5.71
303.15 K, x1 = 0.4	–	1212.6 ± 2.4	7.73
303.15 K, x1 = 0.5	2.37 ± 0.19	1214.9 ± 2.5	9.78
303.15 K, x1 = 0.62	–	1216.9 ± 2.5	12.55
303.15 K, x1 = 0.7	–	1218 ± 2.5	15.17
303.15 K, x1 = 0.8	2.8 ± 0.22	1218.9 ± 2.6	18.53
303.15 K, x1 = 1	–	1220.4 ± 2.7	28.81
304.15 K, x1 = 1	4.94 ± 0.4	–	–
308.15 K, x1 = 0.1	0.546 ± 0.044	–	–
308.15 K, x1 = 0.22	0.93 ± 0.074	–	–
308.15 K, x1 = 0.3	1.59 ± 0.13	–	–
308.15 K, x1 = 0.5	2.62 ± 0.21	–	–
308.15 K, x1 = 0.8	3.13 ± 0.25	–	–
313.15 K, x1 = 0.1	0.597 ± 0.048	1191 ± 2.4	2.66
313.15 K, x1 = 0.22	1.03 ± 0.082	1197 ± 2.4	3.64
313.15 K, x1 = 0.3	1.74 ± 0.14	1200.6 ± 2.4	4.57
313.15 K, x1 = 0.4	–	1204.1 ± 2.4	6.07
313.15 K, x1 = 0.5	2.88 ± 0.23	1206.7 ± 2.4	7.59
313.15 K, x1 = 0.62	–	1209.1 ± 2.5	9.6
313.15 K, x1 = 0.7	–	1210.4 ± 2.5	11.72
313.15 K, x1 = 0.8	3.46 ± 0.28	1212 ± 2.6	14.49
313.15 K, x1 = 1	5.97 ± 0.48	1213.1 ± 2.7	20.91
318.15 K, x1 = 0.1	0.65 ± 0.052	–	–
318.15 K, x1 = 0.22	1.13 ± 0.09	–	–
318.15 K, x1 = 0.3	1.9 ± 0.15	–	–
318.15 K, x1 = 0.5	3.15 ± 0.25	–	–
318.15 K, x1 = 0.8	3.81 ± 0.3	–	–
323.15 K, x1 = 0.1	0.704 ± 0.056	1181.1 ± 2.4	2.24
323.15 K, x1 = 0.22	1.23 ± 0.098	1187.7 ± 2.4	3.04
323.15 K, x1 = 0.3	2.06 ± 0.17	1191.7 ± 2.4	3.75
323.15 K, x1 = 0.4	–	1195.7 ± 2.4	4.91
323.15 K, x1 = 0.5	3.43 ± 0.27	1198.6 ± 2.4	6.07
323.15 K, x1 = 0.62	–	1201.4 ± 2.5	7.57
323.15 K, x1 = 0.7	–	1203 ± 2.5	9.33
323.15 K, x1 = 0.8	4.18 ± 0.33	1204 ± 2.5	10.97
323.15 K, x1 = 1	7.17 ± 0.57	1205.5 ± 2.7	16.7
328.15 K, x1 = 0.1	0.759 ± 0.061	–	–
328.15 K, x1 = 0.22	1.33 ± 0.11	–	–
328.15 K, x1 = 0.3	2.22 ± 0.18	–	–
328.15 K, x1 = 0.5	3.72 ± 0.3	–	–
328.15 K, x1 = 0.8	4.57 ± 0.37	–	–
333.15 K, x1 = 0.1	0.816 ± 0.065	1171.2 ± 2.3	1.91
333.15 K, x1 = 0.22	1.44 ± 0.12	1178.5 ± 2.4	2.57
333.15 K, x1 = 0.3	2.39 ± 0.19	1182.9 ± 2.4	3.14
333.15 K, x1 = 0.4	–	1187.4 ± 2.4	4.06
333.15 K, x1 = 0.5	4.01 ± 0.32	1190.6 ± 2.4	4.97
333.15 K, x1 = 0.62	–	1193.8 ± 2.4	6.15
333.15 K, x1 = 0.7	–	1195.6 ± 2.5	7.61
333.15 K, x1 = 0.8	4.97 ± 0.4	1196.5 ± 2.5	8.83
333.15 K, x1 = 1	8.51 ± 0.68	1197.2 ± 2.7	13.3
338.15 K, x1 = 0.1	0.874 ± 0.07	–	–
338.15 K, x1 = 0.22	1.54 ± 0.12	–	–
338.15 K, x1 = 0.3	2.56 ± 0.2	–	–
338.15 K, x1 = 0.5	4.32 ± 0.35	–	–
338.15 K, x1 = 0.8	5.38 ± 0.43	–	–
343.15 K, x1 = 0.1	0.932 ± 0.075	1161.4 ± 2.3	1.65
343.15 K, x1 = 0.22	1.66 ± 0.13	1169.3 ± 2.3	2.2
343.15 K, x1 = 0.3	2.73 ± 0.22	1174.2 ± 2.4	2.68
343.15 K, x1 = 0.4	–	1179.1 ± 2.4	3.44
343.15 K, x1 = 0.5	4.62 ± 0.37	1182.7 ± 2.4	4.16
343.15 K, x1 = 0.62	–	1186.2 ± 2.4	5.19
343.15 K, x1 = 0.7	–	1188 ± 2.5	6.42
343.15 K, x1 = 0.8	5.8 ± 0.46	1189.5 ± 2.5	7.91
343.15 K, x1 = 1	–	1190.2 ± 2.6	11.17
344.95 K, x1 = 1	9.3 ± 0.74	–	–
348.15 K, x1 = 0.1	0.992 ± 0.079	–	–
348.15 K, x1 = 0.22	1.77 ± 0.14	–	–
348.15 K, x1 = 0.3	2.91 ± 0.23	–	–
348.15 K, x1 = 0.5	4.93 ± 0.39	–	–
348.15 K, x1 = 0.8	6.24 ± 0.5	–	–
353.15 K, x1 = 0.1	1.05 ± 0.084	1151.6 ± 2.3	1.45
353.15 K, x1 = 0.22	1.88 ± 0.15	1160.1 ± 2.3	1.91
353.15 K, x1 = 0.3	3.09 ± 0.25	1165.4 ± 2.3	2.32
353.15 K, x1 = 0.4	–	1170.8 ± 2.4	2.95
353.15 K, x1 = 0.5	5.24 ± 0.42	1174.9 ± 2.4	3.54
353.15 K, x1 = 0.62	–	1178.7 ± 2.4	4.3
353.15 K, x1 = 0.7	–	1180 ± 2.4	5.2
353.15 K, x1 = 0.8	6.68 ± 0.53	1181.5 ± 2.5	6.35
353.15 K, x1 = 1	–	1182 ± 2.6	9.28
353.65 K, x1 = 1	10.5 ± 0.84	–	–
358.15 K, x1 = 0.1	1.11 ± 0.089	–	–
358.15 K, x1 = 0.22	1.99 ± 0.16	–	–
358.15 K, x1 = 0.3	3.19 ± 0.26	–	–
358.15 K, x1 = 0.5	5.55 ± 0.44	–	–
358.15 K, x1 = 0.8	7.12 ± 0.57	–	–
362.15 K, x1 = 0.3	3.35 ± 0.27	–	–
363.15 K, x1 = 0.5	5.83 ± 0.47	–	–
363.15 K, x1 = 0.8	7.57 ± 0.61	–	–
